Reference: patent US6211439A, “Herbicide resistance in plants” (MGI Pharma, Inc, priority 1995, dated 2001)
In brackets after ≈: the same amount, converted by molar mass.

Tests used:
[1] = test system: Unselected culture tissue; test: Herbicide inhibition of plant regeneration, unselected culture tissue; assay type: cell-based, maize
Method: (§1) Eighty to 90 mg quantities of maize callus tissue were transferred to embryo and shoot development (regeneration) media in petri plates. The media consisted of MS basal media supplemented with 0.1 mg per liter 2,4-D and 1×10^-7 M abscissic acid. 0.25% Gelrite (Kelco Co., San Diego, Calif.) was used as a solid support in place of agar. The tissue was incubated in the dark at 26° C. (approximately 300 footcandles,soft white fluorescent) on a cycle of 14 hours light, 10 hours dark. Developing plants reaching a size of 1-3 cm were then transferred to flasks or jars, containing MS media with no supplementation, for further development. When plants reached the two to three leaf stage, they were moved to pots containing vermiculite and exposed to light at 2600 footcandles. These plants were watered with 20% v/v MS media for one week and then with water until they grew stably. The plants were then transferred to soil for growth to maturity.
The effect of various concentrations of 214 on plant regeneration embryo and shoot development were evaluated. Unselected culture tissue was transferred to regeneration media containing various concentrations of 214 ranging from 0.01 to 0.3 mg per liter. The tissue was then put through the first three weeks of the plant regeneration protocol described supra. The culture was scored after this time for the production of well defined shoots.

[2] = test system: line XA17 tissue; test: Plant regeneration from line XA17 callus in presence of herbicide; assay type: cell-based, maize; conditions: 0.1, 0.3, and 3.0 mg per liter 214
Method: as §1
Traits which are selected for and expressed in undifferentiated cell cultures are not necessarily expressed in the differentiated organs and tissues of a developing plant. Therefore, it was necessary to examine plants regenerated from line XA17 callus tissue in the presence of normally inhibitory concentrations of 214. Line XA17 tissue was transferred to regeneration media containing 0.1, 0.3, and 3.0 mg per liter 214.

[3] = test system: control seedlings; test: Seedling assay, control (herbicide sensitive) seedlings; assay type: in vivo, maize
Excerpt: Seeds to be used as controls in the heritability assay were obtained from regenerated plants from an herbicide sensitive cell line of the same genetic background as line XA17. These regenerated plants were crossed with pollen obtained from a herbicide sensitive inbred B73 plant grown from seed. Seeds were harvested approximately forty days after pollination.
(§2) Twenty control seeds and ten XA17 seeds were surface sterilized with 2.6% sodium hypochlorite for twenty minutes and then washed with sterile distilled water. The seed was imbibed overnight in sterile water containing a small quantity of the fungicide, captan (N-trichloromethylthio-4-cyclohexene-1,2-dicarboximide). The mature embryos were then excised from the seed and plated scutellum side down on solid MS media without 2,4-D. Ten control seeds were plated on media containing no 214 and ten were plated in the presence of 6×10^-8M 214 which had been incorporated into the medium after autoclaving but before gelling. All ten XA17 seeds were plated in the presence of 6×10^-8 M 214. Seedlings were evaluated seven days after plating.
XA17 seeds homozygous for the resistance trait were obtained as described in Section 6.4.6. […] Assays were conducted as described in Section 6.4.5.

[4] = test system: XA17 seedlings; test: Seedling assay, progeny of XA17 regenerated plant x B73 (heterozygous); assay type: in vivo, maize
Excerpt: An XA17 regenerated plant with a normal ear was pollinated with pollen obtained from a herbicide sensitive inbred B73 plant grown from seed. Seeds were obtained and harvested approximately forty days post pollination.
as §2

[5] = test system: cell line XA119; test: Tolerance of cell line XA119 at the cellular level; assay type: cell-based, maize
[6] = test system: isozymes of AHAS (I, II and III); test: E. coli AHAS isozymes assayed in vitro; assay type: biochemical; conditions: millimolar concentrations
Excerpt: Genes encoding AHAS are common to the aspartate and branched chain amino acid pathways in plants and microorganisms (Umbarger, 1978, Ann. Rev. Biochem, 47: 533-606). AHAS catalyzes the first step in the synthesis of the amino acids leucine, valine and isoleucine. AHAS activity is regulated in vivo by various end products or combination of end products of the biosynthetic pathway. AHAS genes with a variety of regulatory characteristics are available from microorganisms including, but not limited to, Escherichia coli, yeast and Neurospora. These might include AHAS genes which are naturally resistant to the imidazolinone herbicides. […] Resistance of E. coli to AC 243,997 therefore appears to be the result of an insensitive site of action as opposed to being a result of metabolism of the herbicide. Resistance in other organisms is likely to be of the same nature, providing a variety of sources of a gene encoding an herbicide resistant AHAS. The genes encoding all three E. coli isozymes have been cloned and sequenced. Selection for imidazolinone resistant mutant AHAS genes in microorganisms or plants including plant tissue cultures would provide a diverse source of genes which, when transferred to plants, produce herbicide resistant plants.

[7] = test system: Suspension culture cells; test: Protein synthesis: incorporation of radiolabeled amino acids into TCA-precipitable cell components; assay type: cell-based, maize; conditions: Zea mays; 1×10^-5 M 997; cells at different post-subculture intervals; cell fresh weight basis
Method: Suspension culture cells were preincubated for 48 hours in the presence or absence of 1×10^-5 M 997 and then exposed for 12 hours to 75 !Ci of either ^35 S-methionine (1210 Ci/mmol, New England Nuclear, Boston, Mass.) or ^3 H-DL-leucine (55 Ci/mmol, ICN Pharmaceuticals Inc. -K and K Laboratories, Plainview, N.Y.) per 0.1 ml of cells at a cell density of 10% volume cells/volume suspension. Cells were then centrifuged 300×g, washed with cold MS culture media, and ground with a cold mortar and pestle in the presence of one volume of 6 M urea. The resulting extract was centrifuged at 12,800×g for 5 minutes. The pellet was then reextracted and, following centrifugation, the extracts were combined. Protein was precipitated by the addition of 10% w/v trichloroacetic acid (TCA). Protein was removed by centrifugation and resolubilized in 6 M urea. Incorporation of radiolabel into protein was determined by scintillation counting.

[8] = control seedlings, 6×10^-8 M 214, seven days after plating
[9] = 6×10^-8 M 214, seven days after plating

SMILES	somatic embryo development and shoot formation ([1]; 0.3 mg per liter 214)	IC50 ([1]; Zea mays, 504 h, based on the number of shoots formed, first three weeks of regeneration protocol, read-out: concentration inhibiting plant regeneration 50%) [µg/mL]	plantlet development on regeneration media [2]	IC50 ([3]; Zea mays, read-out: concentration inhibiting shoot growth 50%) [nM]	average root length [3, 8] [cm]	average shoot length [3, 8] [cm]	root length of resistant seedlings [4, 9]	root length of sensitive seedlings [4, 9]	level of tolerance on an herbicide concentration basis ([4]; seedlings heterozygous for the tolerance trait)	enhancement of tolerance at the cellular level [5]	sensitivity of AHAS isozymes I, II and III [6]	inhibition at 10 µM [7] [%]
CC(C)C1(C)NC(c2nc3ccccc3cc2C(=O)O)=NC1=O (stereo not drawn) [compound 214, 2-(5-isopropyl-5-methyl-4-oxo-2-imidazolin-2-yl)3-quinolinecarboxylic acid]	completely inhibited	0.03 to 0.1 (≈ 0.0964 to 0.321 µM)	Normally developing plantlets were obtained at all three herbicide levels	30	1.1	1.5	6-7 cm	0-1 cm	at least 5 fold	approximately three fold	–	–
CC(C)C1(C)NC(c2ncccc2C(=O)O)=NC1=O (stereo not drawn) [compound 997, 2-(5-isopropyl-5-methyl-4-oxo-2-imidazolin-2-yl)nicotinic acid]	–	–	–	–	–	–	–	–	–	–	insensitive to millimolar concentrations	50 to 77
